Each structure is given as a SMILES string.

The target in the assay is T1, N-terminal HiBiT tagged BCL-XL (Homo sapiens, UniProt Q07817).
T1 construct: expressed in transfected cells; host or cells: HT-1080 (ATCC CCL-121) cells stably transduced with lentivirus pLV-UBC-N-HiBiT-BCL-XL-PGK-puro
Kind of assay: HiBiT based degradation assay. The format is cell-based. The note with it: HT1080 cells expressing N-terminal HiBiT tagged BCL-XL, BCL-XL level normalized with DMSO control. The source says:
Human BCL-XL protein coding open reading frame fused with N-terminal HiBiT coding sequence was synthesized from Integrated DNA Technologies (IDT). Next, N-HiBiT-BCL-XL sequence was cloned into pLV-UBC-PGK-Puro, a lentivirus plasmid purchased from Vectorbuilder, to generate pLV-UBC-N-HiBiT-BCL-XL-PGK-puro. Lentiviral particles were generated from Lenti-X™ 293T cells (Clontech) by co-transfection of pLV-UBC-N-HiBiT-BCL-XL-PGK-puro plasmids and lentiviral packaging plasmid mix (Cellecta). HT-1080 [HT1080](ATCC CCL-121) cells were infected with the lentivirus, and HT1080 cells stably integrated with the lentiviral vectors were established by incubation with […] puromycin (Thermofisher).
HT1080 cells expressing N-terminal HiBiT tagged BCL-XL were dispensed into a 384-well plate pre-spotted with compounds at varying concentrations. Three thousand cells were seeded into each well in 40 μL of RPMI 1640 media. […] After incubation, luminescence was read on a PHERAstar FSX Plate Reader (BMG). BCL-XL degradation at each indicated concentration was normalized with the DMSO control. The BCL-XL degradation curves were plotted using a four-parameter logistic model. For compounds displaying hook effects, the curve fitting was performed using the bottom point of the hook curves (i.e., the point of Ymin) as the bottom plateau to calculate EC50.
(HiBiT is a short tag that completes a luciferase, so light tracks the accessible tagged protein.)

T1 sequence (Q07817 whole entry): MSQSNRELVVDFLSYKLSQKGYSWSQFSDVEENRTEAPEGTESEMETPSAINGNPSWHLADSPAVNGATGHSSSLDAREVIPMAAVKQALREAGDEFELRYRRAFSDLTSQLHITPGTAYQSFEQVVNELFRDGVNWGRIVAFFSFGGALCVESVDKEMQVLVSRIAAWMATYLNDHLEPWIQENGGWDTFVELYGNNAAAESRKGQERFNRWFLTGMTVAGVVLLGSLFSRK

Consider `Cc1c(OCC2CC3(CCN(CCN4CCN(c5cc6c(cc5F)C(=O)N(C5CCC(=O)NC5=O)C6=O)CC4)CC3)C2)cccc1-c1ccc(N2CCc3cccc(C(=O)Nc4nc5ccccc5s4)c3C2)nc1C(=O)O` (stereo not shown) [Compound 132, 6-(8-(benzo[d]thiazol-2-ylcarbamoyl)-3,4-dihydroisoquinolin-2(1H)-yl)-3-(3-((7-(2-(4-(2-(2,6-dioxopiperidin-3-yl)-6-fluoro-1,3-dioxoisoindolin-5-yl)piperazin-1-yl)ethyl)-7-azaspiro[3.5]nonan-2-yl)methoxy)-2-methylphenyl)picolinic acid], for which the “Ymin (24 h)” value is given as “B (50% ≤ Ymin < 70%)”.

For `Cc1c(OCC2CC3(CCN(CC(=O)N4CCN(c5cc6c(cc5F)C(=O)N(C5CCC(=O)NC5=O)C6=O)CC4)CC3)C2)cccc1-c1ccc(N2CCc3cccc(C(=O)Nc4nc5ccccc5s4)c3C2)nc1C(=O)O` (stereo not shown) [Compound 113, 6-[8-(1,3-benzothiazol-2-ylcarbamoyl)-3,4-dihydro-1H-isoquinolin-2-yl]-3-[3-[[7-[2-[4-[2-(2,6-dioxo-3-piperidyl)-6-fluoro-1,3-dioxo-isoindolin-5-yl]piperazin-1-yl]-2-oxo-ethyl]-7-azaspiro[3.5]nonan-2-yl]methoxy]-2-methyl-phenyl]pyridine-2-carboxylic acid], the “Ymin (6 h)” value is listed as “B (50% ≤ Ymin < 70%)” and the “Ymin (24 h)” value is “B (50% ≤ Ymin < 70%)”.

As for `Cc1c(OCCCN2CCN(c3cc4c(cc3F)C(=O)N(C3CCC(=O)NC3=O)C4=O)CC2)cccc1-c1ccc(N2CCc3cccc(C(=O)Nc4nc5ccccc5s4)c3C2)nc1C(=O)O` (stereo not shown) [Compound 101], the “Ymin (6 h)” value is recorded as “B (50% ≤ Ymin < 70%)”.

For the compound `Cc1c(OCCC[C@H]2CCN(CC(=O)N3CCN(c4cc5c(cc4F)C(=O)N(C4CCC(=O)NC4=O)C5=O)CC3)CC2(F)F)cccc1-c1ccc(N2CCc3cccc(C(=O)Nc4nc5ccccc5s4)c3C2)nc1C(=O)O` (stereo partly shown) [Compound 120b], the “Ymin (24 h)” value is “C (Ymin ≥ 70%)”.

On to `Cc1c(OCCC2CCN(CC(=O)N3CCN(c4cc5c(cc4F)C(=O)N(C4CCC(=O)NC4=O)C5=O)CC3)CC2)cccc1-c1ccc(N2CCc3cccc(C(=O)Nc4nc5ccccc5s4)c3C2)nc1C(=O)O` (stereo not shown) [Compound 106, 6-[8-(1,3-Benzothiazol-2-ylcarbamoyl)-3,4-dihydro-1H-isoquinolin-2-yl]-3-[3-[2-[1-[2-[4-[2-(2,6-dioxo-3-piperidyl)-6-fluoro-1,3-dioxo-isoindolin-5-yl]piperazin-1-yl]-2-oxo-ethyl]-4-piperidyl]ethoxy]-2-methyl-phenyl]pyridine-2-carboxylic acid], for which the “Ymin (6 h)” value is “B (50% ≤ Ymin < 70%)”.

With `Cc1c(O[C@H]2CC[C@H](CCCCN3CCN(c4cc5c(cc4F)C(=O)N(C4CCC(=O)NC4=O)C5=O)CC3)CC2)cccc1-c1ccc(N2CCc3cccc(C(=O)Nc4nc5ccccc5s4)c3C2)nc1C(=O)O` (stereo partly shown) [Compound 129a, 6-(8-(benzo[d]thiazol-2-ylcarbamoyl)-3,4-dihydroisoquinolin-2(1H)-yl)-3-(3-(((1s,4r)-4-(4-(4-(2-(2,6-dioxopiperidin-3-yl)-6-fluoro-1,3-dioxoisoindolin-5-yl)piperazin-1-yl)butyl)cyclohexyl)oxy)-2-methylphenyl)picolinic acid], the “Ymin (24 h)” value is “B (50% ≤ Ymin < 70%)”.

`Cc1c(O[C@H]2CC[C@H](CCCC(=O)N3CCN(c4cc5c(cc4F)C(=O)N(C4CCC(=O)NC4=O)C5=O)CC3)CC2)cccc1-c1ccc(N2CCc3cccc(C(=O)Nc4nc5ccccc5s4)c3C2)nc1C(=O)O` (stereo partly shown) [Compound 139a, 6-(8-(benzo[d]thiazol-2-ylcarbamoyl)-3,4-dihydroisoquinolin-2(1H)-yl)-3-(3-(((1s,4r)-4-(4-(4-(2-(2,6-dioxopiperidin-3-yl)-6-fluoro-1,3-dioxoisoindolin-5-yl)piperazin-1-yl)-4-oxobutyl)cyclohexyl)oxy)-2-methylphenyl)picolinic acid]: the “Ymin (24 h)” value was “B (50% ≤ Ymin < 70%)”.

`Cc1c(OCCCCCCCCN2CCN(c3cc4c(cc3F)C(=O)N(C3CCC(=O)NC3=O)C4=O)CC2)cccc1-c1ccc(N2CCc3cccc(C(=O)Nc4nc5ccccc5s4)c3C2)nc1C(=O)O` (stereo not shown) [Compound 108]: the “Ymin (6 h)” value was “B (50% ≤ Ymin < 70%)”.

Take `Cc1c(OCC[C@@H](C)C2CCN(CC(=O)N3CCN(c4cc5c(cc4F)C(=O)N(C4CCC(=O)NC4=O)C5=O)CC3)CC2)cccc1-c1ccc(N2CCc3cccc(C(=O)Nc4nc5ccccc5s4)c3C2)nc1C(=O)O` (stereo partly shown) [Compound 130b]: the “Ymin (24 h)” value is reported as “C (Ymin ≥ 70%)”.

`Cc1c(OCC[C@H](C)C2CCN(CC(=O)N3CCN(c4cc5c(cc4F)C(=O)N(C4CCC(=O)NC4=O)C5=O)CC3)CC2)cccc1-c1ccc(N2CCc3cccc(C(=O)Nc4nc5ccccc5s4)c3C2)nc1C(=O)O` (stereo partly drawn) [Compound 130a, 6-[8-(1,3-benzothiazol-2-ylcarbamoyl)-3,4-dihydro-1H-isoquinolin-2-yl-3-[3-[(3S)-3-1-[2-[4-[2-(2,6-dioxo-3-piperidyl)-6-fluoro-1,3-dioxo-isoindolin-5-yl]piperazin-1-yl]-2-oxo-ethyl]-4-piperidyl]butoxy]-2-methyl-phenyl]pyridine-2-carboxylic acid]: the “Ymin (24 h)” value was “B (50% ≤ Ymin < 70%)”.

With `Cc1c(OCCCC2CCN(CCN3CCN(c4cc5c(cc4F)C(=O)N(C4CCC(=O)NC4=O)C5=O)CC3)CC2)cccc1-c1ccc(N2CCc3cccc(C(=O)Nc4nc5ccccc5s4)c3C2)nc1C(=O)O` (stereo not shown) [Compound 118, 6-(8-(benzo[d]thiazol-2-ylcarbamoyl)-3,4-dihydroisoquinolin-2(1H)-yl)-3-(3-(3-(1-(2-(4-(2-(2,6-dioxopiperidin-3-yl)-6-fluoro-1,3-dioxoisoindolin-5-yl)piperazin-1-yl)ethyl)piperidin-4-yl)propoxy)-2-methylphenyl)picolinic acid], the “Ymin (24 h)” value is on record as “A (Ymin < 50%)”.

In the case of `Cc1c(OCCCC2CCN([C@H](C)C(=O)N3CCN(c4cc5c(cc4F)C(=O)N(C4CCC(=O)NC4=O)C5=O)CC3)CC2)cccc1-c1ccc(N2CCc3cccc(C(=O)Nc4nc5ccccc5s4)c3C2)nc1C(=O)O` (stereo partly drawn) [Compound 124b, 6-(8-(benzo[d]thiazol-2-ylcarbamoyl)-3,4-dihydroisoquinolin-2(1H)-yl)-3-(3-(3-(1-((2R)-1-(4-(2-(2,6-dioxopiperidin-3-yl)-6-fluoro-1,3-dioxoisoindolin-5-yl)piperazin-1-yl)-1-oxopropan-2-yl)piperidin-4-yl)propoxy)-2-methylphenyl)picolinic acid], the “Ymin (24 h)” value is given as “B (50% ≤ Ymin < 70%)”.

Consider `Cc1c(OCCC[C@@H]2CCN(CC(=O)N3CCN(c4cc5c(cc4F)C(=O)N(C4CCC(=O)NC4=O)C5=O)CC3)C2)cccc1-c1ccc(N2CCc3cccc(C(=O)Nc4nc5ccccc5s4)c3C2)nc1C(=O)O` (stereo partly drawn) [Compound 122b, 6-[8-(1,3-benzothiazol-2-ylcarbamoyl)-3,4-dihydro-1H-isoquinolin-2-yl]-3-[3-[3-[(3R)-1-[2-[4-[2-(2,6-dioxo-3-piperidyl)-6-fluoro-1,3-dioxo-isoindolin-5-yl]piperazin-1-yl]-2-oxo-ethyl]pyrrolidin-3-yl]propoxy]-2-methyl-phenyl]pyridine-2-carboxylic acid], for which the “Ymin (24 h)” value was “B (50% ≤ Ymin < 70%)”.

`Cc1c(Oc2ccc(CCCCN3CCN(c4cc5c(cc4F)C(=O)N(C4CCC(=O)NC4=O)C5=O)CC3)cc2)cccc1-c1ccc(N2CCc3cccc(C(=O)Nc4nc5ccccc5s4)c3C2)nc1C(=O)O` (stereo not shown) [Compound 117, 6-(8-(benzo[d]thiazol-2-ylcarbamoyl)-3,4-dihydroisoquinolin-2(1H)-yl)-3-(3-(4-(4-(4-(2-(2,6-dioxopiperidin-3-yl)-6-fluoro-1,3-dioxoisoindolin-5-yl)piperazin-1-yl)butyl)phenoxy)-2-methylphenyl)picolinic acid]: the “Ymin (6 h)” value was “B (50% ≤ Ymin < 70%)” and the “Ymin (24 h)” value is “B (50% ≤ Ymin < 70%)”.

With `Cc1c(OCCC[C@H]2CCN(CC(=O)N3CCN(c4cc5c(cc4F)C(=O)N(C4CCC(=O)NC4=O)C5=O)CC3)C2)cccc1-c1ccc(N2CCc3cccc(C(=O)Nc4nc5ccccc5s4)c3C2)nc1C(=O)O` (stereo partly drawn) [Compound 122a, 6-(8-(benzo[d]thiazol-2-ylcarbamoyl)-3,4-dihydroisoquinolin-2(1H)-yl)-3-(3-(3-((3S)-1-(2-(4-(2-(2,6-dioxopiperidin-3-yl)-6-fluoro-1,3-dioxoisoindolin-5-yl)piperazin-1-yl)-2-oxoethyl)pyrrolidin-3-yl)propoxy)-2-methylphenyl)picolinic acid], the “Ymin (24 h)” value is recorded as “B (50% ≤ Ymin < 70%)”.

`O=C1CCC(N2C(=O)c3cc(F)c(N4CCN(CCCCCCCOc5cccc(-c6ccc(N7CCc8cccc(C(=O)Nc9nc%10ccccc%10s9)c8C7)nc6C(=O)O)c5)CC4)cc3C2=O)C(=O)N1` (stereo not shown) [Compound 103]: the “Ymin (6 h)” value was “B (50% ≤ Ymin < 70%)”.

`Cc1c(OCCC2CCN(CCN3CCN(c4cc5c(cc4F)C(=O)N(C4CCC(=O)NC4=O)C5=O)CC3)CC2)cccc1-c1ccc(N2CCc3cccc(C(=O)Nc4nc5ccccc5s4)c3C2)nc1C(=O)O` (stereo not shown) [Compound 116, 6-[8-(1,3-benzothiazol-2-ylcarbamoyl)-3,4-dihydro-1H-isoquinolin-2-yl]-3-[3-[2-[1-[2-[4-[2-(2,6-dioxo-3-piperidyl)-6-fluoro-1,3-dioxo-isoindolin-5-yl]piperazin-1-yl]ethyl]-4-piperidyl]ethoxy]-2-methyl-phenyl]pyridine-2-carboxylic acid]: the “Ymin (24 h)” value is “A (Ymin < 50%)”.

Source of the values: US20250282771A1, “TETRAHYDROISOQUINOLINE HETEROBIFUNCTIONAL BCL-XL DEGRADERS” (Treeline Biosciences, Inc., priority 2022, published 2025).
